Laboratory results: patent US9540647B2, “Methods and compositions for the treatment of cancer” (University of South Alabama, priority 2010, dated 2017)
Entries after “also recorded” stand apart in the source; their conditions may differ. Starred links: 1 amine or outer side, 2 acyl side, 3 side chain; linkers in the order of their positions; H or OH if unused. Positions of bridges follow the written chain, without caps; N, C: chain ends. Non-standard residues stand in square brackets, D forms with d. Residues, ends and D or L forms follow the SMILES beside them. Chains are numbered I, II in the order given. Actinocin(9to1) = Cc1c2oc3c(C)ccc(C(=O)[*:1])c3nc-2c(C(=O)[*:2])c(N)c1=O; NMeV = CN[C@H](C(=O)O)C(C)C; Nle = CCCC[C@H](N)C(=O)O; Sar = CNCC(=O)O

B1: interleukin 1-α (protein, UniProt P01583 113-271, looked up)
Interleukin-1 alpha: SAPFSFLSNVKYNFMRIIKYEFILNDALNQSIIRANDQYLTAAALHNLDEAVKFDMGAYKSSKDDAKITVILRISKTQLYVTAQDEDQPVLLKEMPEIPKTITGSETNLLFFWETHGTKNYFTSVAHPNLFIATKQDYWVCLAGGPPSITDFQILENQA

What was measured:
ERCC1 = details: A2780-CP70; cited from earlier work
OPN promoter = OPN promoter luciferase reporter assay in metastatic melanoma cell lines; format: cell-based, human; details: MCC012A and MCC012F cell lines; tomatidine
Source text: Empty pGL3 vector was used as control. […] Readings were normalized to total protein content. Each parameter was studied in triplicate and the experiment repeated at least 3 times. The data are represented as percent luciferase activity, which was derived as a percent of the relative light units in treated groups compared with the untreated groups.

[1] = test system: MDA-MB-435 (435) and SUM1315 (1315) cells; assay: Drug sensitivity of cells transfected with shRNA to GLI1 (MTS assay); format: cell-based, human; details: cells transfected with shRNA to GLI1 vs empty vector; 24 hours
Description: MDA-MB-435 (435) and SUM1315 (1315) cells were transfected with either empty vector (vec) or with vector encoding shRNA to GLI1 (shGLI1). Cells were treated with the indicated concentrations of drugs for 24 hours and viability was assessed using an MTS assay (FIG. 62A-FIG. 62C). […] Using real-time quantitative RT-PCR the GLI1 shRNA brings about a decrease of about 50% in the expression of ABCB1 (MDR1) and 90% decrease in ABCG2 (BCRP).

ERCC1, XPD, XRCC1 = details: previous experiments; agents at IC50 doses; cited from earlier work
[2] = test system: GLI1-knocked down MDA-MB-435 cells; assay: Migration, invasion and motility of GLI1-knocked down cells with OPN add-back; format: cell-based, human
Description: Motility Assay—These experiments were performed as previously described (Shevde, L. A., et al. (2006) Clin. Exp. Metastasis 23, 123-133). Images were acquired at T0, the reading at the initial time, and at T10 (10 h later). The experiment was conducted in duplicate and cell motility was calculated as (T0−T10)/T0, which represents the rate of movement over a 10-h period. For OPN add-back experiments the cells were pretreated for 12 h with 100 ng/ml human OPN (recombinant R & D Systems) and the assay conducted in the presence of OPN. Each experimental group was assessed in duplicate and data were recorded in three fields per well. Thus, six data points were recorded and analyzed per experimental group.
Invasion and Migration Assays—These experiments were performed as previously outlined (18) using a modified Boyden chamber assay. OPN add-back experiments for migration and invasion were conducted as described above with an additional step of pre-treating the cells for 24 h with rOPN. OPN was added to the upper and lower chambers (100 ng/ml) to ensure the OPN was present during the entire duration of the experiment. Each experimental group was assessed as three independent replicates.

RAW264.7 cells [3] = assay: Osteoclast differentiation (TRAP assay); format: cell-based, murine; details: DM supplemented with OPN (100 ng/ml) or SHH (100 nM) vs DM
Description: Cell lines—Human metastatic breast cancer cells, MDA-MB-231, were cultured in Dulbecco's Modified Eagle's Medium (DMEM/F12; Invitrogen, Carlsbad, Calif.), supplemented with 2 mM L-glutamine, 1 mM sodium pyruvate, 0.02 mM non-essential amino acids, 5% fetal bovine serum, FBS (Atlanta Biologicals, Norcross, Ga.), without antibiotics or antimycotics (cDME/F12). SUM1315 and SUM159 cells (DiMeo, T. A., et al. (2009) Cancer Res 69, 5364-5373) (Asterand, Detroit, Mich.) were cultured in DMEM/F12 supplemented with […], 5% FBS (Atlanta Biologicals) and either 10 ng/ml EGF or 1 ng/ml hydrocortisone, without antibiotics or antimycotics. The SUM1315 cells are derived from a metastasis in a patient with infiltrating ductal carcinoma; SUM159 cells were derived from a primary breast tumor with metaplastic carcinoma. RAW264.7 (ATCC, TIB 71) cells, a murine pre-osteoclastic line capable of differentiation and […] in culture (in presence of RANKL and MCSF), were grown in DMEM with L-glutamine (ATCC, 30-2002) supplemented with 10% FBS. A 2× differentiation medium (DM) was formulated for the RAW 264.7 cells comprising RAW264.7 growth medium supplemented with 20% FBS, RANKL (100 ng/ml) and M-CSF (40 ng/ml) (Matsubara, T., et al. J Bone Miner Res 25, 1068-1076). Conditioned media was harvested from breast cancer cells and mixed in a 1:1 ratio with double strength differentiation medium to assess the effect on osteoclast differentiation. 1×DM was used as control or wherever SHH (R & D Systems, Minneapolis, Minn.) or OPN (R & D Systems) was used alone. The medium on the RAW264.7 cells was replenished every 48 hours. In order to assess the effect of secreted Hh ligands, the neutralizing 5E1 antibody was used (Developmental Studies Hybridoma Bank, at the University of Iowa, Iowa). […] Medium was supplemented with 5E1 (2.5 μg/ml) and was changed on alternate days until the end of the experiment. The effect of OPN on osteoclast activity was assessed by transfecting an OPN shRNA-expressing construct on day 6 post-induction of differentiation. Fresh DM was added the following day and cells were allowed to grow for another 12 hours before termination of experiment. GLI1 expression was silenced in the SUM1315 cells using shRNA targeting GLI1 into pSuperior. gfp+neo (Oligoengine, WA, USA). Silencing of OPN expression was done using OPN-targeting shRNA cloned into pSuper (Oligoengine)
Osteoclast differentiation and activity assays—Tartarate-resistant acid phosphatase (TRAP) assay was conducted for RAW 264.7 following the manufacturer's protocol (Sigma, St. Louis, Mo.). This assay was indicative of the extent of differentiation. […] The percentage of area resorbed was calculated using the NIS-Elements BR. […]

RAW264.7 cells [4] = assay: Osteoclast resorption activity (OAAS plates); format: cell-based, murine; details: DM with OPN (100 ng/ml) or SHH (100 nM)
Description: Osteoclast differentiation and activity assays—Tartarate-resistant acid phosphatase (TRAP) assay was conducted for RAW 264.7 following the manufacturer's protocol (Sigma, St. Louis, Mo.). This assay was indicative of the extent of differentiation. OAAS plates (Osteogenic Core Technologies, Choongnam, Republic of Korea) were utilized to measure osteoclastic activity. RAW 264.7 cells (25×103) were inoculated in 48-well plates. Cells were treated with serum-free conditioned media from breast cancer cells or 100 nM SHH or 100 ng/ml OPN on the following day. Media was changed every two days and the experiments were terminated either on day 6 (day 7 for knockdown experiments, with transfections being done on the sixth day). At the completion, cells were detached with 5% sodium hypochlorite and the wells were observed under a Nikon Eclipse TS 100 microscope at 10× magnification. […] The percentage of area resorbed was calculated using the NIS-Elements BR. 3.1 software.

Row | Molecule | ERCC1 up-regulation after cisplatin exposure (ERCC1) | other results
1 | CC[C@H](C)[C@@H]1NC(=O)CNC(=O)[C@@H]2Cc3c([nH]c4cc(O)ccc34)[S+]([O-])C[C@@H](NC(=O)CNC1=O)C(=O)N[C@@H](CC(N)=O)C(=O)N1C[C@H](O)C[C@H]1C(=O)N[C@@H]([C@@H](C)[C@@H](O)CO)C(=O)N2 (stereo in doubt) [α-amanitin] | blunted ERCC1 up-regulation | –
2 | CCCC[C@@H](C=O)NC(=O)[C@H](CC(C)C)NC(=O)[C@H](CC(C)C)NC(C)=O [N-acetyl-leucyl-leucyl-norleucinal] (Ac-Leu-Leu-[Nle]-aldehyde) | blunted ERCC1 up-regulation | –
3 | Cc1cc(C)c(/C=C2\C(=O)Nc3ccccc32)[nH]1 [SU5416] | blunted ERCC1 up-regulation | –
4 | C[C@H]1CC[C@]2(NC1)O[C@H]1C[C@H]3[C@@H]4CC[C@H]5C[C@@H](O)CC[C@]5(C)[C@H]4CC[C@]3(C)[C@H]1[C@@H]2C [Tomatidine, tomatidine] | – | promoter activity of OPN (OPN promoter): no effect
5 | Cc1c2oc3c(C)ccc(C(=O)N[C@@H]4C(=O)N[C@H](C(C)C)C(=O)N5CCC[C@H]5C(=O)N(C)CC(=O)N(C)[C@@H](C(C)C)C(=O)O[C@@H]4C)c3nc-2c(C(=O)N[C@@H]2C(=O)N[C@H](C(C)C)C(=O)N3CCC[C@H]3C(=O)N(C)CC(=O)N(C)[C@@H](C(C)C)C(=O)O[C@@H]2C)c(N)c1=O [actinomycin D] (I: T[dV]P[Sar][NMeV] / II: T[dV]P[Sar][NMeV]; ester I:1-I:C, II:1-II:C; linker I:N-II:N via Actinocin(9to1)) | blunted ERCC1 up-regulation | –
6 | [Cr] [chromium] | blunted ERCC1 up-regulation | –
7 | C[C@@H]1C[C@@H]([C@H](O)CC2CC(=O)NC(=O)C2)C(=O)[C@@H](C)C1 [cycloheximide] | blunted ERCC1 up-regulation | –
8 | COc1cccc2c1C(=O)c1c(O)c3c(c(O)c1C2=O)C[C@@](O)(C(=O)CO)C[C@@H]3O[C@H]1C[C@H](N)[C@H](O)[C@H](C)O1 [doxorubicin] | – | sensitivity to drug (viability, MTS assay) [1]: increased sensitivity
9 | CO[C@H]1[C@@H](OC)C[C@H](C)[C@@H](OC)C2=CC(=O)C=C(NC(=O)/C(C)=C/C=C\[C@H](OC)[C@@H](OC(N)=O)/C(C)=C/[C@@H]1C)C2=O [herbimycin A] | blunted ERCC1 up-regulation | –
10 | CC(=O)N[C@@H](CSC(=O)[C@]1([C@@H](O)C(C)C)NC(=O)[C@H](C)[C@@H]1O)C(=O)O [lactacystin] | blunted ERCC1 up-regulation | –
11 | CCCCCCCCCCCCCC(=O)O[C@@H]1[C@@H](C)[C@@]2(O)[C@@H](C=C(CO)C[C@]3(O)C(=O)C(C)=C[C@@H]23)[C@@H]2C(C)(C)[C@]12OC(C)=O [phorbol ester] | – | ERCC1, XPD, or XRCC1 regulation (ERCC1, XPD, XRCC1): up-regulated
12 | [Pt] [platinum] | blunted ERCC1 up-regulation | –
13 | CC(=O)O[C@H]1C(=O)[C@@]2(C)[C@H]([C@H](OC(=O)c3ccccc3)[C@]3(O)C[C@H](OC(=O)[C@H](O)[C@@H](NC(=O)c4ccccc4)c4ccccc4)C(C)=C1C3(C)C)[C@]1(OC(C)=O)CO[C@@H]1C[C@@H]2O [taxol] | – | sensitivity to drug (viability, MTS assay) [1]: increased sensitivity
14 | OPN: recombinant human osteopontin (R & D Systems) | – | cell motility (wound healing assay) ([2]; KO1 and KO4 cells in presence of recombinant OPN): restored; cell invasion through Matrigel ([2]; KO1 and KO4 cells, OPN 100 ng/ml vs untreated): significantly larger numbers; cell migration ([2]; KO1 and KO4 cells, OPN 100 ng/ml vs untreated, modified Boyden chamber): significantly larger numbers; numbers of multinucleate TRAP-positive cells (RAW264.7 cells [3]): stimulate osteoclast differentiation; also recorded: significantly (* indicates p<0.005) increases; resorption activity of differentiated osteoclasts (RAW264.7 cells [4]): significantly (* indicates p<0.001) increases the resorption activity
15 | B1 | blunted ERCC1 up-regulation | –
